Measured values: patent publication US20050038125A1, “Method for the treatment of arthritis and pain” (priority 2003, published 2005)

Assays:
[1] = system: PGE2 production in mouse whole blood; experiment: LPS stimulated PGE2 production by mouse whole blood; type: cell-based
Protocol: Murine blood (C57/b16 male) was collected in heparinized collection tubes. The blood was diluted 0.5 times with cell culture medium without serum. 150 μl diluted blood was transferred into a 96-well microtiterplate. Silbinol™ was dissolved in DMSO and subsequently further diluted before adding to the cells in a concentration range of 0-25-50 μg/ml. Total amount of DMSO in the well was 0.1% DMSO. After 1 hour of preincubation of the mixture of blood cells and Silbinol™ or blood cells and 100 μM Ibuprofen™ at 37° C. in a humidified atmosphere containing 5% CO2, 1 μg/ml LPS was added and incubated for another 20 hours. Plates were centrifuged (5 minutes, 1200 rpm, SorvallRT7™) and supernatants are harvested and stored at −80° C. for further analysis.
PGE2 in the thawed supernatants was determined using the commercial enzyme immunoassay of Biotrak™ (Biotrak Amersham, Buckinghamshire, UK) according to the manufacturer's protocol 2.

[2] = system: PGE2 production by hPBMCs; experiment: PGE2 production by LPS stimulated hPBMCs (enzyme immunoassay); type: cell-based, human; settings: for PGE2 production / effect on PGE2 production by hPBMCs (in words): after LPS stimulation; for IC50: Homo sapiens, read-out: estimated IC50 (PGE2 production by hPBMCs after LPS stimulation)
Protocol: Peripheral Blood Mononuclear Cells (PBMCs) isolated from buffy coats of human blood from 3 healthy donors were stored in liquid nitrogen using standard procedures. For each experiment, PBMCs were thawed, transferred into a 50 ml centrifuge tube (BD Falcon, Erembodegem Aalst, Belgium) and cell culture medium (RPNI-1640 containing 25 mM HEPES and 2 mM L-glutamine (Life-Technologies, Merelbeke, Belgium) and further enriched with 10% heat inactivated fetal calf serum (^hiFCS), 120 U/ml penicillin/streptomycin and 1.2 mM sodium pyruvate) was added in a drop-wise fashion. Subsequently cells were centrifuged for 5 minutes at 1200 rpm (Sorvall RT7™). Cells were washed with cell culture medium (two times) and counted using a coulter counter (Beckman Coulter, Fullerton, Calif., USA). Parallel, a microscopic viability check using trypan blue is performed. PBMCs were pipetted into a 96-well flat bottom microtiterplate (BD Falcon, Brembodegem Aalst, Belgium), 1.5×10^5 cells per well. Pterostilbene (Chromadex, Santa Anna, Calif., USA), Silbinol™ (Pterocarpus marsupium plant extract containing at least 5 wt. % pterostilbene based on dried weight; Sabinsa Corporation, Piscataway, USA) and resveratrol (Sigma, St. Louis, USA) were dissolved in dimethylsulfoxide (DMSO) and subsequently further diluted in cell culture medium and added to the cells in a concentration range (see below). DMSO concentration in the wells was 0.1%. Subsequently the cells were incubated for 1 hour at 37° C. in a humidified atmosphere containing 5% CO2. After 1 hour, lipopolysaccharide (LPS, E. Coli […], […]) was added and the cells were incubated for 20 hours at 37° C. in a humidified atmosphere containing 5% CO2. The supernatants were harvested 20 hours after incubation and stored at −80° C. until further analysis. Metabolic activity of the PBMCs with and without the presence of test compound was determined using the succinate dehydrogenase activity.
Concentrations of 3.12, 6.25, 12.5, 25 and 50 μg/ml of either Pterostilbene or Silbinol™ were tested to find the dose range of inhibitory activity (Table 1 and 2). Following the determination of the dose range with PGE2 production inhibitory activity, concentrations of 0, 2, 4, 8, 16 and 32 μg/ml Silbinol™ (Table 3) and 0, 0.037, 0.11, 0.33, 1 and 3 μM pterostilbene (Table 4) were tested.
For comparative purposes, the effects 0, 0.33, 1, 3, 9 and 27 μM resveratrol on PGE2 production by hPBMCs was determined (Table 5).
PGE2 in the thawed supernatants was measured using a commercial enzyme immunoassay (Biotrak Amersham, Buckinghamshire, UK) according to the manufacturer's protocol 2.

[3] = system: hPBMCs; experiment: Metabolic activity of PBMCs (succinate dehydrogenase activity); type: cell-based, human; settings: lower dose range (Table 4), compared with PGE2 inhibition
Protocol: Peripheral Blood Mononuclear Cells (PBMCs) isolated from buffy coats of human blood from 3 healthy donors were stored in liquid nitrogen using standard procedures. For each experiment, PBMCs were thawed, transferred into a 50 ml centrifuge tube (BD Falcon, Erembodegem Aalst, Belgium) and cell culture medium (RPNI-1640 containing 25 mM HEPES and 2 mM L-glutamine (Life-Technologies, Merelbeke, Belgium) and further enriched with 10% heat inactivated fetal calf serum (^hiFCS), 120 U/ml penicillin/streptomycin and 1.2 mM sodium pyruvate) was added in a drop-wise fashion. Subsequently cells were centrifuged for 5 minutes at 1200 rpm (Sorvall RT7™). Cells were washed with cell culture medium (two times) and counted using a coulter counter (Beckman Coulter, Fullerton, Calif., USA). Parallel, a microscopic viability check using trypan blue is performed. PBMCs were pipetted into a 96-well flat bottom microtiterplate (BD Falcon, Brembodegem Aalst, Belgium), 1.5×10^5 cells per well. […] Metabolic activity of the PBMCs with and without the presence of test compound was determined using the succinate dehydrogenase activity.

CC(C)Cc1ccc(C(C)C(=O)O)cc1 (stereo not shown) [Ibuprofen]
PGE2 production ([1]; 100 μM, LPS stimulated mouse whole blood): 1709 pg/mL | effect on PGE2 production in mouse whole blood (in words) ([1]; LPS stimulated): inhibit PGE2 production

COc1cc(C=Cc2ccc(O)cc2)cc(OC)c1 [Pterostilbene, 4′-hydroxy-3,5-dimethoxystilbene]
PGE2 production ([2]; 0.037 μM, Mean of donors A-C): 5434 pg/mL | PGE2 production ([2]; 0.037 μM, donor A): 5957 pg/mL | PGE2 production ([2]; 0.037 μM, donor B): 7788 pg/mL | PGE2 production ([2]; 0.037 μM, donor C): 2574 pg/mL | PGE2 production ([2]; 0.11 μM, Mean of donors A-C): 4494 pg/mL | PGE2 production ([2]; 0.11 μM, donor A): 5305 pg/mL | PGE2 production ([2]; 0.11 μM, donor B): 6930 pg/mL | PGE2 production ([2]; 0.11 μM, donor C): 1248 pg/mL | PGE2 production ([2]; 0.33 μM, Mean of donors A-C): 2589 pg/mL | PGE2 production ([2]; 0.33 μM, donor A): 2786 pg/mL | PGE2 production ([2]; 0.33 μM, donor B): 4782 pg/mL | PGE2 production ([2]; 0.33 μM, donor C): 199 pg/mL | PGE2 production ([2]; 1 μM, Mean of donors A-C): 1879 pg/mL | PGE2 production ([2]; 1 μM, donor A): 2067 pg/mL | PGE2 production ([2]; 1 μM, donor B): 3570 pg/mL | PGE2 production ([2]; 3 μM, Mean of donors A-C): 691 pg/mL | PGE2 production ([2]; 3 μM, donor A): 280 pg/mL | PGE2 production ([2]; 3 μM, donor B): 1794 pg/mL | PGE2 production ([2]; 3.12 μg/ml, Mean of donors A-C): 39 pg/mL | PGE2 production ([2]; 3.12 μg/ml, donor B): 117 pg/mL | PGE2 production ([2]; 6.25 μg/ml, Mean of donors A-C): 9 pg/mL | PGE2 production ([2]; 6.25 μg/ml, donor A): 28 pg/mL | PGE2 production ([2]; 12.5 μg/ml, Mean of donors A-C): 2 pg/mL | PGE2 production ([2]; 12.5 μg/ml, donor B): 5 pg/mL | PGE2 production ([2]; 25 μg/ml, Mean of donors A-C): 44 pg/mL | PGE2 production ([2]; 25 μg/ml, donor A): 63 pg/mL | PGE2 production ([2]; 25 μg/ml, donor B): 69 pg/mL | PGE2 production ([2]; 50 μg/ml, Mean of donors A-C): 269 pg/mL | PGE2 production ([2]; 50 μg/ml, donor A): 584 pg/mL | PGE2 production ([2]; 50 μg/ml, donor B): 222 pg/mL | IC50 [2]: 830 nM | effect on PGE2 production by hPBMCs (in words) [2]: inhibit PGE2 production | metabolic activity of hPBMCs [3]: decrease, however to a much lesser extent

Oc1ccc(C=Cc2cc(O)cc(O)c2)cc1 [Resveratrol, resveratrol, reference compound]
IC50 [2]: 4700 nM | PGE2 production ([2]; Table 5, 0.33 μM, Mean of donors A-C): 6717 pg/mL | PGE2 production ([2]; Table 5, 0.33 μM, donor A): 8380 pg/mL | PGE2 production ([2]; Table 5, 0.33 μM, donor B): 8060 pg/mL | PGE2 production ([2]; Table 5, 0.33 μM, donor C): 3710 pg/mL | PGE2 production ([2]; Table 5, 1 μM, Mean of donors A-C): 5601 pg/mL | PGE2 production ([2]; Table 5, 1 μM, donor A): 6835 pg/mL | PGE2 production ([2]; Table 5, 1 μM, donor B): 7369 pg/mL | PGE2 production ([2]; Table 5, 1 μM, donor C): 2597 pg/mL | PGE2 production ([2]; Table 5, 3 μM, Mean of donors A-C): 2916 pg/mL | PGE2 production ([2]; Table 5, 3 μM, donor A): 3120 pg/mL | PGE2 production ([2]; Table 5, 3 μM, donor B): 5449 pg/mL | PGE2 production ([2]; Table 5, 3 μM, donor C): 178 pg/mL | PGE2 production ([2]; Table 5, 9 μM, Mean of donors A-C): 1383 pg/mL | PGE2 production ([2]; Table 5, 9 μM, donor A): 1213 pg/mL | PGE2 production ([2]; Table 5, 9 μM, donor B): 2936 pg/mL | PGE2 production ([2]; Table 5, 27 μM, Mean of donors A-C): 1090 pg/mL | PGE2 production ([2]; Table 5, 27 μM, donor A): 913 pg/mL | PGE2 production ([2]; Table 5, 27 μM, donor B): 2355 pg/mL | effect on PGE2 production by hPBMCs (in words) [2]: inhibit PGE2 production
